What was measured:
[1] = tested on: thermal hyperalgesia in allodynic rats; test: Thermal hyperalgesia test (paw withdrawal latency) in CCI (Bennett) rats; type: in vivo, rat
[2] = tested on: agrin mRNA; test: RT-PCR of agrin gene expression (C-terminal primers) in L3-5 spinal cord; type: in vivo, rat
Description: Gene expression alterations after the nerve injury: Gene expression for amino(“N”)- and carboxy(“C”)-terminal halves of agrin was analyzed from L3-5 spinal cord of the rats (sacrificed at 2 hr, 24 hr, 3 days, and 7 days post surgery), using RT-PCR and real-time PCR. The differences in gene expression between sham-operated and nerve-injured groups were compared.
Total RNA extraction: The rats were deeply anesthetized with isoflurane and decapitated. The spinal cord from L3-5 was quickly removed and immediately put into a tube containing TRIzol® (2 ml, Invitrogen, Carlsbad, Calif.). The tissue was homogenized with IKA® T8 homogenizer (IKA®, Staufen, Germany) for 2 min, allowed to stand at room temperature for 3 min, and 0.4 ml chloroform added. The tube was vortexed and centrifuged at 12,000×g for 15 min. The water phase was transferred to a clean tube without any contamination from other phases. Then 1 ml isopropanol was added to the water phase, and the mixture allowed to stand for 10 min at room temperature. The tube was centrifuged for 10 min at 12,000×g. The supernatant was discarded, and the pellet washed with 1 ml 70% ethanol. The ethanol was discarded, and the RNA was re-dissolved in 30 μl nucleotide-free water. A 1 μl aliquot was taken and reserved to dilute 20-fold for RNA quality control. […]
[…]. Changes in agrin gene induced by the injected drug was analyzed and compared.

[3] = tested on: agrin protein; test: Western blot of agrin protein in L3-5 spinal cord; type: in vivo, rat
Description: Western blot for detecting protein expression of agrin: Agrin protein was analyzed from L3-5 spinal cord with Western blot as described below at times of 1 day, 3 days, and 7 days post-surgery. The changes in these proteins between sham-operated, nerve-injured (no drug), and nerve-injured (pre-emptive drug) groups were analyzed.
Agrin Protein Extraction: The rats were deeply anesthetized with isoflurane and decapitated. Spinal cord L3-5 was quickly removed and immediately placed into tissue lysis buffer (1 ml, Sigma Co., St. Louis, Mo.) that contained protein enzyme inhibitors (1:100, Halt, Pierce). The tissue was homogenized for 2 min and incubated on ice for 45 min. The sample was then centrifuged at 10,000×g for 30 min at 4° C. The supernatant was transferred to a new tube and centrifuged again for further clarifying. The concentration of the protein was determined by an Agilent's Bio-Rad protein chip (Agilent's 2100 bioanalyzer, Santa Clara, Calif.) and by the […] (reagents from Bio-Rad).
Western blot: Protein (20 μg) from each sample was mixed with 2× electrophoresis buffer and boiled for 5 min. The samples, along with a negative control, were loaded on 4-15% acrylamide tris-glycine SDS gels and electrophoresed in a cell (Bio-Rad) for approximately 1 hr. A Hybond-P polyvinylidene difluoride membrane (Bio-Rad, Hercules, Calif.) was used for transferring the protein in a mini-trans-blot transfer cell (Bio-Rad) for 2 hr. The membrane was then soaked in 2% milk for 1 hour and probed with monoclonal agrin antibody (Agr510 and Agr530, 1:5000, StressGen Biotechnologies Corp., Victoria, Canada) or β-actin antibody (1:5000) at 4° C. overnight with continual shaking. The following day goat anti-mouse secondary antibody conjugated to Alexa Fluor680 (1:5000, Molecular Probe) was added to the membrane and incubated for 1 hr at room temperature. The samples were washed three times with TBS buffer (Tris Buffered Saline, DAKO, Carpinteria, Calif.) between steps. The membrane was then scanned with an Odyssey (LI-COR) scanner and analyzed by Odyssey software (Li-Cor, Lincoln, Nebr.).
In rats with tactile allodynia (a withdrawal threshold with a filament below 8 g), an intrathecal catheter (PE 10) was installed and linked to an osmotic pump (Alzet) in a 37° C. water bath. Following a bolus injection of SCP-1 (30 nmol/kg, 10 μl), agrin siRNA (100 nM) was intrathecally administered continuously by the pump at a rate of 5 μl/1 hour for 4 hr. The animals were subjected to von Frey filament test every 15 min for 4 hr to determine whether the effects of SCP-1 on allodynia suppression are blocked by agrin siRNA. A control siRNA (nFsiRNA) was applied in the same way. The behavioral data was analyzed for agrin effects. […]

[4] = Solubility for intrathecal injection; type: physicochemical
Description: The maximum volume injected at any one time was 10 μl.^[79]

[5] = tested on: rodents; conditions: orally to rodents, 3.7 mmol/kg to 36 mmol/kg; cited from earlier work
[6] = tested on: cultured human hepatocytes; conditions: 100 μM; cited from earlier work
[7] = tested on: nociceptive pain; conditions: cited from earlier work
[8] = tested on: Bennett model rats with hyperalgesia and allodynia; conditions: intrathecally, 30 nmol/kg; cited from earlier work

## O=C(CN1C(=O)c2ccccc2S1(=O)=O)Nc1ccc(O)cc1 [SCP-1]
[1]; intrathecal 100 nmol in 10 μl, CCI (Bennett) rat model
  increase in paw-withdrawal latency (thermal hyperalgesia): 80%
[1]; intrathecal 100 nmol, 120 min
  effect on paw-withdrawal latency at 120 min post injection: still apparent
[2]; allodynic rats, intrathecal injection 7 days post injury, one- and two-hour post injection
  agrin mRNA: increased
[2]; pre-emptive intrathecal injection prior to CCI, 3 and 7 days post-injury
  agrin mRNA: did not show a decrease in agrin mRNA
[3]; allodynic rats, 2 h post-SCP-1 injection
  agrin protein level: up-regulated to a normal level
[3]; pre-emptive intrathecal injection prior to CCI, 3 and 7 days
  agrin protein: did not decrease
[4]; 45% cyclodextrin in saline, 10 mM solutions prepared
  solubility in 45% 2-hydroxypropyl-α-cyclodextrin in saline: can dissolve them
[4]; water
  solubility in water: do not dissolve readily in water
[5]
  toxicity after oral dosing: the animals were still moving normally
[6]
  apoptosis: did not induce apoptosis
[7]; formalin- and CFA-induced, rodent models, without any toxicity
  effect on nociceptive pain: suppressed formalin- and CFA-induced nociceptive pain
[7]; while relieving nociceptive pain
  acute liver or kidney toxicity: without acute liver or kidney toxicity
[8]
  effect on allodynia and hyperalgesia: depressed the signs of allodynia and hyperalgesia

— patent publication US20100004171A1, “Therapeutic Methods for Neuropathic Pain” (priority 2006, published 2010)
